Six molecules from US20140350081A1, “INSECT G-COUPLED RECEPTORS USEFUL AS TARGETS FOR INSECTICIDES AND COMPOUNDS AND REAGENTS IDENTIFIED USING THE SAME” (priority 2011, published 2014) can be followed below.

Data set [1] has as its target T1, AaDOP2 (Aedes aegypti, UniProt H6D5H2). Put plainly: CRELuc reporter dose-response in HEK293 cells stably expressing AaDOP2. In kind it is cell-based.
For data set [2], the target named is T1, AaDOP2. Briefly: AaDOP2 agonist screen against the LOPAC1280 library. In kind it is cell-based. To be noted: 10 μM compound; percent of response to 1 μM dihydrexidine.
The next data set deals with AaDOP1 (Aedes aegypti, UniProt H6D5H1). Briefly: CRELuc reporter dose-response in HEK293 cells stably expressing AaDOP1. In kind it is cell-based. To be noted: HEK293 cells stably expressing CRELuc reporter and AaDOP1.
Chain of AaDOP1 (H6D5H1 entry or part of it): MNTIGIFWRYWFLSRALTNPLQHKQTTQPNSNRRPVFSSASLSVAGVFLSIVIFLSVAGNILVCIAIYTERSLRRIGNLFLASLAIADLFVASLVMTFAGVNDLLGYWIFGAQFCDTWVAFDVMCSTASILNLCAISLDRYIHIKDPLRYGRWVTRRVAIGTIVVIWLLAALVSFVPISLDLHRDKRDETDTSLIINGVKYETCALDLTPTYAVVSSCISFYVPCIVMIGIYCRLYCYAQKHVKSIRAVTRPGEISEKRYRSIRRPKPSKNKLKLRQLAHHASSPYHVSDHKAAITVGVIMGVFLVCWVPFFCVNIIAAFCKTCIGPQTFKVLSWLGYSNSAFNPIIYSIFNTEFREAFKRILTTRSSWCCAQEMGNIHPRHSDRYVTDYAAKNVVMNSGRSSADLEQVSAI
Data set [3] concerns the target T2, Isdop2 (Ixodes scapularis, UniProt A0ACM8DGL0). Briefly: cAMP accumulation in HEK 293 cells transiently expressing Isdop2. In kind it is cell-based. The conditions noted are these: for increase in cAMP, Isdop2: 10 μM agonist, transient expression.
For a further data set, the target named is Isdop1 (Ixodes scapularis, UniProt A0ACM8FJJ0). Put plainly: cAMP accumulation in HEK 293 cells transiently expressing Isdop1. In kind it is cell-based. The conditions noted are these: for intracellular cAMP compared to basal, Isdop1: 10 μM agonist, transient expression. (cAMP levels reflect the balance of adenylyl cyclase and phosphodiesterase activity.)

The test system of data set [4] is Ae. aegypti L3 larvae. To be noted: 400 μM, three independent experiments.
Data set [5] has as its system Ae. aegypti L3 larvae. Briefly: whole plant or invertebrate. To be noted: Aedes aegypti.
Data set [6] has as its target T1, AaDOP2. Briefly: HTRF cAMP accumulation concentration response assay (Cisbio Dynamic 2). The conditions noted are these: AaDOP2 expressing cells in the presence of dopamine; No Inhibition = <10% inhibition at 3 μM test compound; read-out: IC50 ± S.E.M. (nM), HTRF cAMP assay. In kind it is cell-based.
Data set [7] concerns adult male Blatella germanica. Briefly: Cockroach contact assay (topical application). To be noted: 200 mM compound. In kind it is in vivo. The source says:
(§1) A series of whole organism bioassays was developed to further evaluate the toxicity of chemistries to a range of agricultural, veterinary and public health pests and non-target insects (Tables 12 and 13). These assays are designed to rapidly explore the biological activity spectrum of chemistries as well as to facilitate initial investigations of the mode of action of insecticidal compounds. Briefly, assays were developed for the German cockroach (Blatella germanica, urban pest), termite (Reticulitermes flavipes; urban pest), lone star tick (Amblyomma americana; veterinary and public health pest), soybean aphid (Aphis glycines, agricultural pest) and honeybee (Apis mellifera; beneficial, non-target insect). The assays were designed to test the toxicity and speed of kill of multiple chemistries on contact. Each of these assays was performed as a single point dose experiment in triplicate using either topical application of compound to the ventral thorax ([…]; 50-80 μg effective dose depending on compound) as is the case for our cockroach and honeybee assays, or 10 second immersion in a solution of the compound diluted in water or DMSO:EtOH to a final concentration of 100 μM. The assays were conducted in 24-well plate format with mortality assessment following incubation at 22° C. as described above. Commercial insecticides were incorporated in these assays to provide a positive control and permit initial comparative analyses. Lead chemistries identified in our in vivo screen have been evaluated in the cockroach and termite assays.

For data set [8], the system named is Ae. aegypti L3 larvae. Briefly: Ae. aegypti L3 concentration response and time course assays. In kind it is in vivo, Aedes aegypti. To be noted: for LT50: 400 μM, L3 larval time course assay; for LC50: Aedes aegypti. How it is done: Briefly, chemistries were diluted to appropriate concentration in water and added to the wells of 24-well plates containing 5 L3 stage Ae. aegypti larvae to achieve a final concentration of 400, 200, 100, 50 and 25 μM in 1 ml sterile RO water. Chemistries were tested in quadruplicate at each concentration. […] Results reported here represent a minimum of three independent CRC experiments (i.e., n=3).

The test system of data set [9] is adult male Blatella germanica. Put plainly: Cockroach assay of Table 16 (title contact assay, text feeding assay). In kind it is in vivo. To be noted: 200 mM compound.
Source text: as §1

Data set [10] has as its target T2, Isdop2. Put plainly: cell-based. To be noted: read-out: % Inhibition (of response to dopamine), Isdop2 screen.
Setting [11] is: 10 μM biogenic amine, 300 nM propranolol, cAMP accumulation, mean±standard error.
Where [12] appears, read: 0.5 h, read-out: mortality of the mosquito population within 30 minutes, 400 μM, L3 larvae.
Where [13] appears, read: 0.5 h, read-out: percent mortality 0.5 hr, 400 uM, L3 larvae, value for this scoring time.
The mark [14] stands for this setting: 1 h, read-out: percent mortality 1 hr, 400 uM, L3 larvae, per scoring time.
[15] abbreviates: 2 h, read-out: percent mortality 2 hr, 400 uM, L3 larvae, per scoring time.
Setting [16] is: 3 h, read-out: percent mortality 3 hr, 400 uM, L3 larvae, per scoring time.
The mark [17] stands for this setting: 4 h, read-out: percent mortality 4 hr, 400 uM, L3 larvae, per scoring time.
Setting [18] is: 24 h, read-out: percent mortality 24 hr, 400 uM, L3 larvae, per scoring time.
[19] abbreviates: 48 h, read-out: Toxicity to Aedes aegypti larvae (mortality) 48 hours, 400 μM, L3 larvae, three independent experiments.
The mark [20] stands for this setting: 48 h, read-out: percent mortality 48 hr, 400 uM, L3 larvae, per scoring time.
Setting [21] is: 72 h, read-out: Cumulative % Mortality (72 hrs), 400 uM, L3 larvae.
Setting [22] is: 72 h, read-out: Toxicity to Aedes aegypti larvae (mortality) 72 hours, 400 μM, L3 larvae, three independent experiments.
Setting [23] is: 72 h, read-out: percent mortality 72 hr, 400 uM, L3 larvae, per scoring time.
[24] abbreviates: HEK293 cells stably expressing CRELuc reporter and AaDOP2, ≧10 μM = lacks intrinsic activity, read-out: EC50 values AaDOP2.

Structures are written as SMILES. Where two headings read alike, the source gives them in different places.

T1 sequence (H6D5H2 entry or part of it): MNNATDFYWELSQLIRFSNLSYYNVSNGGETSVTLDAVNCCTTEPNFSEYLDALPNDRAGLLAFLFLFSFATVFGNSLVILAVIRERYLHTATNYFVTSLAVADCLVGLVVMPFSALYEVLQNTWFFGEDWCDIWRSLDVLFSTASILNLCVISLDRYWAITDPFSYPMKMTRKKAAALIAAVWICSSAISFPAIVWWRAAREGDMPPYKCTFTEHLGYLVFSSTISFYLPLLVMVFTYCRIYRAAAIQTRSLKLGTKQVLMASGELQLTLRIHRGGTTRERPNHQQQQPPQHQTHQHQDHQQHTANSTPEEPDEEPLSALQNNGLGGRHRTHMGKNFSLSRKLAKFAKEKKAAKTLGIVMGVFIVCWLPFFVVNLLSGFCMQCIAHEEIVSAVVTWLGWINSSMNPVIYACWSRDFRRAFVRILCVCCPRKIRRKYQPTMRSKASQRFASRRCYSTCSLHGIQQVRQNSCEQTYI
T2 sequence (A0ACM8DGL0 entry or part of it): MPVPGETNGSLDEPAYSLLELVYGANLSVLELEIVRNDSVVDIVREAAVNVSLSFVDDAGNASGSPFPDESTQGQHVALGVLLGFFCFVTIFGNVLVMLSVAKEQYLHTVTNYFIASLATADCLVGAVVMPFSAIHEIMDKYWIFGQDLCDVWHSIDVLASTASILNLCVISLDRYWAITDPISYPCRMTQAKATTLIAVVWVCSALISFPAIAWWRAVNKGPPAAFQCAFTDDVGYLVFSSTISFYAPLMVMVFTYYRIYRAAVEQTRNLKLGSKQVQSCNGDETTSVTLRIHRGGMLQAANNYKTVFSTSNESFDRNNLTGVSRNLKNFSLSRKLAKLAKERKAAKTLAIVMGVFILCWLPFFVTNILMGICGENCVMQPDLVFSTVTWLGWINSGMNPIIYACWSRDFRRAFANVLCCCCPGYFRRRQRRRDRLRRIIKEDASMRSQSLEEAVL

As for `Oc1cc2c(cc1O)[C@H]1c3ccccc3CN[C@@H]1CC2` (racemic) [Dihydrexidine], the EC50 at AaDOP2 [1] (HEK293 cells stably expressing CRELuc reporter and AaDOP2, read-out: EC50 values AaDOP2) is 290 ± 54 nM; on AaDOP1, 6.9 ± 1.5 nM. In addition, the “% of DHX” value at AaDOP2 [2] was 116%.

Turning to `NCC(O)c1ccc(O)cc1` (racemic) [Octopamine], the EC50 on AaDOP2 [1] and on AaDOP1 (≧10 μM = lacks intrinsic activity) was not below 10000 nM each time. Also, the “Stimulatory response (fold-over-basal) Isdop2” value at Isdop2 [3] (setting [11]) stood at 1.20 ± 0.24 fold-over-basal. Moreover, the “Stimulatory response (fold-over-basal) Isdop1” value at Isdop1 (setting [11]) worked out at 1.01 ± 0.07 fold-over-basal.

With `CN1CC2c3ccccc3Oc3ccc(Cl)cc3C2C1` (stereo not drawn) [Asenapine], the “Toxicity to Aedes aegypti larvae (mortality) 24 hours” value in the data set with Ae. aegypti L3 larvae [4] is 100%. Moreover, the mortality at 400 µM in the data set on Ae. aegypti L3 larvae [5] (setting [12]) is more than 70%; with Ae. aegypti L3 larvae [5] (setting [13]), 70%; with Ae. aegypti L3 larvae [5] (setting [14]) it was 20%; in the data set with Ae. aegypti L3 larvae [5] (setting [15]), 10%; in the data set with Ae. aegypti L3 larvae [5] (setting [16]) it was 0%; in the data set on Ae. aegypti L3 larvae [5] (setting [17]), 0%. Also, the mortality at 400 µM came to 0% in the data set with Ae. aegypti L3 larvae [5] (setting [18]); 100% in the data set with Ae. aegypti L3 larvae [5] (setting [19]); 0% in the data set with Ae. aegypti L3 larvae [5] (setting [20]); 100% with Ae. aegypti L3 larvae [5] (setting [21]); 100% in the data set on Ae. aegypti L3 larvae [5] (setting [22]); 0% with Ae. aegypti L3 larvae [5] (setting [23]). Further, in the data set with Ae. aegypti L3 larvae [5] ([…], read-out: percent mortality […], 400 uM, L3 larvae, per scoring time), the mortality at 400 µM worked out at 0%. Also, on AaDOP2 [6], the IC50 was 0.3 ± 0.06 nM. Further, the figures for the “% Mortality 24 hrs” value in data set [7] and in data set [9] were 5% and 17%, respectively. Also, the entries for the “% Mortality 48 hrs” value in data set [7] and in [9] were 5% and 20%, respectively. Also, the “% Mortality 72 hrs” value in data set [7] amounted to 10%; in data set [9], 27%. Moreover, the entries for the “% Mortality 120 hrs” value in data set [7] and in [9] were 10% and 27%, respectively. In data set [7], the “% Mortality 240 hrs” value turned out to be 10%. Moreover, the “LT50” value in the data set on Ae. aegypti L3 larvae [8] was found to be 30 min. Besides, the LC50 in the data set on Ae. aegypti L3 larvae [8] was found to be 40000 nM.

As for `CN(C)CCCN1c2ccccc2Sc2ccc(Cl)cc21` [Chlorpromazine], in the data set on Ae. aegypti L3 larvae [4], the “Toxicity to Aedes aegypti larvae (mortality) 24 hours” value is 100%. Besides, the mortality at 400 µM was more than 70% with Ae. aegypti L3 larvae [5] (setting [12]); 70% in the data set with Ae. aegypti L3 larvae [5] (setting [13]); 0% in the data set on Ae. aegypti L3 larvae [5] (setting [14]); 10% with Ae. aegypti L3 larvae [5] (setting [15]); 0% with Ae. aegypti L3 larvae [5] (setting [16]); 0% in the data set on Ae. aegypti L3 larvae [5] (setting [17]). The mortality at 400 µM in the data set with Ae. aegypti L3 larvae [5] (setting [18]) is 10%; in the data set on Ae. aegypti L3 larvae [5] (setting [19]) it was 100%; in the data set on Ae. aegypti L3 larvae [5] (setting [20]), 0%; in the data set on Ae. aegypti L3 larvae [5] (setting [21]), 100%; with Ae. aegypti L3 larvae [5] (setting [22]) it was 100%; with Ae. aegypti L3 larvae [5] (setting [23]) it was 0%. Also, the half-inhibitory concentration (IC50) on AaDOP2 [6] amounted to 17 nM. Also, the inhibition at 10 µM at Isdop2 [10] is 92%. Further, the “% Mortality 24 hrs” value came to 3% in [7] and 7% in data set [9]. For the same molecule, the “% Mortality 48 hrs” value worked out at 10% in [7] and 17% in [9]. In addition, the “% Mortality 72 hrs” value is reported as 10% in data set [7] and 17% in data set [9]. Besides, the “% Mortality 120 hrs” value in [7] is listed as 14%; in [9], 20%. The “% Mortality 240 hrs” value in [7] is recorded as 17%. The “LT50” value in the data set with Ae. aegypti L3 larvae [8] turned out to be 178 min. In addition, the LC50 in the data set on Ae. aegypti L3 larvae [8] came out at 92000 nM.

Take `Oc1cc2c(cc1O)C(c1ccccc1)CNCC2` (stereo not drawn) [SKF 38393]: the figures for the EC50 at AaDOP2 [1] (setting [24]) and on AaDOP1 were not below 10000 nM and 310 ± 46 nM, respectively. The “increase in cAMP, Isdop2” value on Isdop2 [3] is listed as “ca. two-fold-over-basal”. For the same molecule, on Isdop1, the “intracellular cAMP compared to basal, Isdop1” value is “modest, yet significant increases”. Besides, the “% of DHX” value at AaDOP2 [2] was less than 10%.

With `Oc1cc2c(c(Cl)c1O)CCNCC2c1ccccc1` (stereo not drawn) [SKF 81297], the EC50 is not below 10000 nM on AaDOP2 [1] (setting [24]) and 24 ± 7 nM on AaDOP1. In addition, the “increase in cAMP, Isdop2” value on Isdop2 [3] is on record as “ca. two-fold-over-basal”. Besides, the “intracellular cAMP compared to basal, Isdop1” value on Isdop1 is on record as “modest, yet significant increases”. Besides, at AaDOP2 [2], the “% of DHX” value was found to be 38%.

One may read the EC50 as the concentration giving half of the maximal effect. The term mortality denotes the share of the test organisms that died. A word on the IC50: it is the concentration that inhibits the measured activity by half. What is called LC50 is the concentration that kills 50% of the test population. A higher LC50 goes with lower toxicity. Broadly, the inhibition is the drop in the measured response relative to a control, in per cent.
